Reference: ChEMBL document CHEMBL4316596, “Antimicrobial Peptides with High Proteolytic Resistance for Combating Gram-Negative Bacteria” (J Med Chem, 2019)

Experiments:
Pseudomonas aeruginosa [1] = assay: Antimicrobial activity against Pseudomonas aeruginosa ATCC 27853 after 24 hrs by NCCLS-protocol based assay; assay type: functional; details: ATCC 27853, 24 h
Pseudomonas aeruginosa [2] = assay: Bactericidal activity against Pseudomonas aeruginosa 26305 clinical isolates incubated for 4 hrs followed by culture spread on agar plates and cultured overnight; assay type: functional; details: Pseudomonas aeruginosa, 26305, 4 h; read-out: MBC>99.9
Pseudomonas aeruginosa [3] = assay: Bactericidal activity against Pseudomonas aeruginosa PAO1 incubated for 4 hrs followed by culture spread on agar plates and cultured overnight; assay type: functional; details: PAO1, 4 h, read-out: MBC>99.9
Escherichia coli [4] = assay: Antimicrobial activity against Escherichia coli K88 after 24 hrs by NCCLS-protocol based assay; assay type: functional; details: K88, 24 h
Escherichia coli [5] = assay: Antimicrobial activity against Escherichia coli ATCC 25922 after 24 hrs by NCCLS-protocol based assay; assay type: functional; details: ATCC 25922, 24 h
Salmonella typhimurium [6] = assay: Bactericidal activity against Salmonella typhimurium ATCC 14028 incubated for 4 hrs followed by culture spread on agar plates and cultured overnight; assay type: functional, Salmonella enterica subsp. enterica serovar Typhimurium; details: Salmonella enterica, ATCC 14028, 4 h; read-out: MBC>99.9
Pseudomonas aeruginosa [7] = assay: Bactericidal activity against Pseudomonas aeruginosa 25349 clinical isolates incubated for 4 hrs followed by culture spread on agar plates and cultured overnight; assay type: functional; details: Pseudomonas aeruginosa, 25349, 4 h; read-out: MBC>99.9
Pseudomonas aeruginosa [8] = assay: Bactericidal activity against Pseudomonas aeruginosa CICC 21625 clinical isolates incubated for 4 hrs followed by culture spread on agar plates and cultured overnight; assay type: functional; details: CICC 21625, 4 h, read-out: MBC>99.9
Escherichia coli [9] = assay: Antimicrobial activity against Escherichia coli UB1005 after 24 hrs by NCCLS-protocol based assay; assay type: functional; details: UB1005, 24 h
Salmonella typhimurium [10] = assay: Antimicrobial activity against Salmonella typhimurium C7731 after 24 hrs by NCCLS-protocol based assay; assay type: functional, Salmonella enterica subsp. enterica serovar Typhimurium; details: Salmonella enterica, C7731, 24 h
Pseudomonas aeruginosa [11] = assay: Antimicrobial activity against Pseudomonas aeruginosa CICC 21625 clinical isolates after 24 hrs by NCCLS-protocol based assay; assay type: functional; details: CICC 21625, 24 h
Pseudomonas aeruginosa [12] = assay: Bactericidal activity against Pseudomonas aeruginosa CICC 21630 clinical isolates incubated for 4 hrs followed by culture spread on agar plates and cultured overnight; assay type: functional; details: CICC 21630, 4 h, read-out: MBC>99.9
Acinetobacter baumannii [13] = assay: Bactericidal activity against Acinetobacter baumannii incubated for 4 hrs followed by culture spread on agar plates and cultured overnight; assay type: functional; details: read-out: MBC>99.9
Pseudomonas aeruginosa [14] = assay: Antimicrobial activity against Pseudomonas aeruginosa 26305 clinical isolates after 24 hrs by NCCLS-protocol based assay; assay type: functional; details: Pseudomonas aeruginosa, 26305, 24 h
Salmonella typhimurium [15] = assay: Antimicrobial activity against Salmonella typhimurium ATCC 14028 after 24 hrs by NCCLS-protocol based assay; assay type: functional, Salmonella enterica subsp. enterica serovar Typhimurium; details: Salmonella enterica, ATCC 14028, 24 h
[16] = Bactericidal activity against Salmonella pullorum C7913 incubated for 4 hrs followed by culture spread on agar plates and cultured overnight; assay type: functional, Salmonella enterica subsp. enterica serovar Pullorum; details: Salmonella enterica, C7913, 4 h; read-out: MBC>99.9
Pseudomonas aeruginosa [17] = assay: Antimicrobial activity against Pseudomonas aeruginosa 25349 clinical isolates after 24 hrs by NCCLS-protocol based assay; assay type: functional; details: Pseudomonas aeruginosa, 25349, 24 h
Salmonella typhimurium [18] = assay: Bactericidal activity against Salmonella typhimurium C7731 incubated for 4 hrs followed by culture spread on agar plates and cultured overnight; assay type: functional, Salmonella enterica subsp. enterica serovar Typhimurium; details: Salmonella enterica, C7731, 4 h; read-out: MBC>99.9
Pseudomonas aeruginosa [19] = assay: Antimicrobial activity against Pseudomonas aeruginosa CICC 21630 clinical isolates after 24 hrs by NCCLS-protocol based assay; assay type: functional; details: CICC 21630, 24 h
Escherichia coli [20] = assay: Bactericidal activity against Escherichia coli K88 incubated for 4 hrs followed by culture spread on agar plates and cultured overnight; assay type: functional; details: K88, 4 h, read-out: MBC>99.9
Escherichia coli [21] = assay: Antimicrobial activity against Escherichia coli 078 after 24 hrs by NCCLS-protocol based assay; assay type: functional; details: Escherichia coli, 078, 24 h
Escherichia coli [22] = assay: Bactericidal activity against Escherichia coli 078 incubated for 4 hrs followed by culture spread on agar plates and cultured overnight; assay type: functional; details: Escherichia coli, 078, 4 h; read-out: MBC>99.9
Escherichia coli [23] = assay: Antimicrobial activity against Escherichia coli K99 after 24 hrs by NCCLS-protocol based assay; assay type: functional; details: K99, 24 h
Pseudomonas aeruginosa [24] = assay: Antimicrobial activity against Pseudomonas aeruginosa PAO1 after 24 hrs by NCCLS-protocol based assay; assay type: functional; details: PAO1, 24 h
Escherichia coli [25] = assay: Bactericidal activity against Escherichia coli K99 incubated for 4 hrs followed by culture spread on agar plates and cultured overnight; assay type: functional; details: K99, 4 h, read-out: MBC>99.9
Escherichia coli [26] = assay: Bactericidal activity against Escherichia coli ATCC 25922 incubated for 4 hrs followed by culture spread on agar plates and cultured overnight; assay type: functional; details: ATCC 25922, 4 h, read-out: MBC>99.9
Pseudomonas aeruginosa [27] = assay: Bactericidal activity against Pseudomonas aeruginosa ATCC 27853 incubated for 4 hrs followed by culture spread on agar plates and cultured overnight; assay type: functional; details: ATCC 27853, 4 h, read-out: MBC>99.9
Acinetobacter baumannii [28] = assay: Antimicrobial activity against Acinetobacter baumannii after 24 hrs by NCCLS-protocol based assay; assay type: functional
[29] = Antimicrobial activity against Salmonella pullorum C7913 after 24 hrs by NCCLS-protocol based assay; assay type: functional, Salmonella enterica subsp. enterica serovar Pullorum; details: Salmonella enterica, C7913, 24 h
Klebsiella pneumoniae [30] = assay: Bactericidal activity against Klebsiella pneumoniae incubated for 4 hrs followed by culture spread on agar plates and cultured overnight; assay type: functional; details: read-out: MBC>99.9
Escherichia coli [31] = assay: Bactericidal activity against Escherichia coli UB1005 incubated for 4 hrs followed by culture spread on agar plates and cultured overnight; assay type: functional; details: UB1005, 4 h, read-out: MBC>99.9
Klebsiella pneumoniae [32] = assay: Antimicrobial activity against Klebsiella pneumoniae after 24 hrs by NCCLS-protocol based assay; assay type: functional

MIC95 (Pseudomonas aeruginosa [1]) [µM]	MIC95 (Escherichia coli [4]) [µM]	MIC95 (Escherichia coli [5]) [µM]	MIC95 (Escherichia coli [9]) [µM]	MIC95 (Salmonella typhimurium [10]) [µM]	MIC95 (Pseudomonas aeruginosa [11]) [µM]	MIC95 (Pseudomonas aeruginosa [14]) [µM]	MIC95 (Salmonella typhimurium [15]) [µM]	MIC95 (Pseudomonas aeruginosa [17]) [µM]	MIC95 (Pseudomonas aeruginosa [19]) [µM]	Substance	MBC (Pseudomonas aeruginosa [2]) [µM]	MBC (Pseudomonas aeruginosa [3]) [µM]	MBC (Salmonella typhimurium [6]) [µM]	MBC (Pseudomonas aeruginosa [7]) [µM]	MBC (Pseudomonas aeruginosa [8]) [µM]	MBC (Pseudomonas aeruginosa [12]) [µM]	MBC (Acinetobacter baumannii [13]) [µM]	MBC [16] [µM]	MBC (Salmonella typhimurium [18]) [µM]	MBC (Escherichia coli [20]) [µM]	further results
> 64	> 64	> 64	> 64	> 64	> 64	> 64	> 64	> 64	> 64	H-IKPIIKPIIKPIIKPI-NH2	> 64	> 64	> 64	> 64	> 64	> 64	> 64	> 64	> 64	> 64	MIC95 (Escherichia coli [21]): > 64 µM; MBC (Escherichia coli [22]): > 64 µM; MIC95 (Escherichia coli [23]): > 64 µM; MIC95 (Pseudomonas aeruginosa [24]): > 64 µM; MBC (Escherichia coli [25]): > 64 µM; MBC (Escherichia coli [26]): > 64 µM; MBC (Pseudomonas aeruginosa [27]): > 64 µM; MIC95 (Acinetobacter baumannii [28]): > 64 µM; MIC95 [29]: > 64 µM; MBC (Klebsiella pneumoniae [30]): > 64 µM; MBC (Escherichia coli [31]): > 64 µM; MIC95 (Klebsiella pneumoniae [32]): > 64 µM
> 64	> 64	> 64	> 64	> 64	> 64	> 64	> 64	> 64	> 64	H-IKPIIKPIIKPIIKPIIKPI-NH2	> 64	> 64	> 64	> 64	> 64	> 64	> 64	> 64	> 64	> 64	MIC95 (Escherichia coli [21]): > 64 µM; MBC (Escherichia coli [22]): > 64 µM; MIC95 (Escherichia coli [23]): > 64 µM; MIC95 (Pseudomonas aeruginosa [24]): > 64 µM; MBC (Escherichia coli [25]): > 64 µM; MBC (Escherichia coli [26]): > 64 µM; MBC (Pseudomonas aeruginosa [27]): > 64 µM; MIC95 (Acinetobacter baumannii [28]): > 64 µM; MIC95 [29]: > 64 µM; MBC (Klebsiella pneumoniae [30]): > 64 µM; MBC (Escherichia coli [31]): > 64 µM; MIC95 (Klebsiella pneumoniae [32]): > 64 µM
> 64	1	16	4	> 64	> 64	> 64	> 64	> 64	> 64	H-IKPIIKPIIKPIIKPIIKPIIKPIIKPIIKPI-NH2	> 64	> 64	> 64	> 64	> 64	> 64	4	> 64	> 64	2	MIC95 (Escherichia coli [21]): 32 µM; MBC (Escherichia coli [22]): > 64 µM; MIC95 (Escherichia coli [23]): 2 µM; MIC95 (Pseudomonas aeruginosa [24]): > 64 µM; MBC (Escherichia coli [25]): 4 µM; MBC (Escherichia coli [26]): 16 µM; MBC (Pseudomonas aeruginosa [27]): > 64 µM; MIC95 (Acinetobacter baumannii [28]): 4 µM; MIC95 [29]: > 64 µM; MBC (Klebsiella pneumoniae [30]): > 64 µM; MBC (Escherichia coli [31]): 4 µM; MIC95 (Klebsiella pneumoniae [32]): 64 µM
> 64	4	16	16	16	> 64	> 64	16	> 64	> 64	H-IRPIIRPIIRPIIRPI-NH2	> 64	> 64	16	> 64	> 64	> 64	8	16	32	8	MIC95 (Escherichia coli [21]): 16 µM; MBC (Escherichia coli [22]): 32 µM; MIC95 (Escherichia coli [23]): 8 µM; MIC95 (Pseudomonas aeruginosa [24]): > 64 µM; MBC (Escherichia coli [25]): 16 µM; MBC (Escherichia coli [26]): 32 µM; MBC (Pseudomonas aeruginosa [27]): > 64 µM; MIC95 (Acinetobacter baumannii [28]): 8 µM; MIC95 [29]: 16 µM; MBC (Klebsiella pneumoniae [30]): 32 µM; MBC (Escherichia coli [31]): 16 µM; MIC95 (Klebsiella pneumoniae [32]): 32 µM
